According to PubChem BioAssay (NCI):
Values joined by “and” are separate entries in the source; they are usually repeats but may differ in a detail not shown here. Equal values may be shown once.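 Results reflect a 48-hour exposure of cells in 96-well plates to compound at five concentrations. GI50 is the concentration that inhibits growth by half. TGI is the concentration that stops growth completely.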

Test system: MDA-MB-468 breast
Assay: NCI tumour cell line growth inhibition, 48 h

NC(=S)N/N=C/c1ncccc1N
GI50: 1890 nM
TGI: 10200 nM

CN1CC[C@@H](c2c(O)cc(O)c3c(=O)cc(-c4ccccc4Cl)oc23)[C@@H]1CO
GI50: 251 nM
TGI: 772 nM

O=C(/C=C/c1ccc([N+](=O)[O-])cc1)c1ccc2c3c(cccc13)CC2
GI50: 2980 nM
TGI: 19300 nM

O=[N+]([O-])c1cccc([As]=[As]c2cccc([N+](=O)[O-])c2)c1 (centres undefined)
GI50: 52.9 nM
TGI: 194 nM

CN(C)c1ccc2c(c1)OC(N)=C(C#N)C2c1ccc2c(c1)CCO2 (centres undefined)
GI50: 117 nM
TGI: 47700 nM

O=C(Nc1ccc(Cl)cc1)Nc1ccc(Nc2nncc3ccccc23)cc1
GI50: 2570 nM
TGI: 9470 nM

O=c1nc2oc3ccc4ccccc4c3cc-2s1
GI50: 551 nM
TGI: 19500 nM

COc1cccc(-n2ncc3c(N/N=C/c4ccncc4)ncnc32)c1
GI50: 5150 nM
TGI: > 25000 nM

O=C(NC[C@H](O)CO)c1ccncc1Nc1ccc(I)cc1F
GI50: > 10000 nM and 12100 nM
TGI: > 66000 nM

COc1ccc(C(=O)c2cc3c(N)c(C(=O)Nc4cccc5ccccc45)sc3nc2C)cc1
GI50: 220 nM
TGI: > 50000 nM

CC1(C)[C@@H](OC(N)=O)[C@H]2O[C@H]2[C@]2(CO)[C@H]3CC[C@]4(C)[C@@H](c5ccc(=O)oc5)[C@@H](Cl)C[C@]4(O)C3=CC[C@@H]12
GI50: 21 nM
TGI: 96.5 nM

CCOc1ccccc1N=Nc1c(C)[nH]n(-c2nc(-c3ccccc3)cs2)c1=O
GI50: 8490 nM
TGI: > 100000 nM

Cc1ccc(CNc2c3ccccc3nc3cc(NC(=O)CCN4CCCC4)ccc23)cc1
GI50: 449 nM
TGI: 1630 nM

NC(=O)c1c(NC(=O)c2ccc3c(c2)OCO3)sc2c1CCC(=O)C2
GI50: 1960 nM
TGI: 4430 nM

Cn1cc(C2=C(c3cccc(OCC(O)CO)c3)C(=O)NC2=O)c2ccccc21 (centres undefined)
GI50: > 25000 nM
TGI: > 25000 nM

C1CN(SSN2CCOCC2)CCO1
GI50: > 100000 nM
TGI: > 100000 nM

Cc1c2c(nn1C)CSCc1cc(n(C)n1)CSc1cc(c3ccccc3c1)OCCCc1c(C(=O)O)n(C)c3c-2c(Cl)ccc13
GI50: 185 nM
TGI: 487 nM

CCN(CC)Cc1ccc(Nc2nccc(-c3cnn4ncccc34)n2)cc1
GI50: 35 nM
TGI: 97.5 nM

Cc1cc(N2CCCC2)nc(N(CCNc2ccnc3cc(Cl)ccc23)Cc2ccco2)n1
GI50: 1960 nM
TGI: 6670 nM

COC(=O)c1cc2ccc(OC(C)=O)c(OC(C)=O)c2cn1
GI50: 16100 nM
TGI: 33500 nM

O=C(COc1ccc(/C=C2\Oc3ccccc3C2=O)cc1)Nc1nc2c(s1)CCCC2
GI50: 309 nM
TGI: 1860 nM

COc1cc(C(=O)NC2CCN(C)CC2)c(F)cc1Nc1ncc2c(n1)N(C1CCCC1)CC(F)(F)C(=O)N2C
GI50: < 10 nM
TGI: 633 nM
